Experimental data reported in ChEMBL document CHEMBL4765407, “Design, synthesis and high antitumor potential of new unsymmetrical bisacridine derivatives towards human solid tumors, specifically pancreatic cancers and their unique ability to stabilize DNA G-quadruplexes” (Eur J Med Chem, 2020).
pIC50: −log10 of the molar value.

Key:
[1] = Toxicity in BALB/c mouse assessed as macroscopic anatomopathological changes at total dose of 6 mg/kg, iv administered as 3 times per week for 2 weeks measured for 71 days; format: organism-based; settings: in vivo, 1704 h, time 71 day
MCF7 = assay: Cytotoxicity against human MCF7 cells assessed as reduction in cell viability measured after 72 hrs by SRB assay; format: functional, cell-based; settings: MCF7, 72 h
MDA-MB-231 [2] = assay: Cytotoxicity against human MDA-MB-231 cells assessed as reduction in cell viability measured after 72 hrs by SRB assay; format: functional, cell-based; settings: MDA-MB-231, 72 h
Quadruplex DNA [3] = assay: Stabilization of 5'-FAM/3'-TAMRA labeled K-Ras G4 quadruplex DNA (unknown origin) assessed as change in melting temperature at 10 microM measured after 15 mins by FRET assay; format: nucleic-acid assay
[4] = Toxicity in BALB/c mouse assessed as effect on body weight at total dose of 6 mg/kg, iv administered as 3 times per week for 2 weeks measured for 71 days; format: organism-based; settings: in vivo, 1704 h, time 71 day
PANC-1 [5] = assay: Cytotoxicity against human PANC-1 cells assessed as reduction in cell viability measured after 72 hrs by SRB assay; format: functional, cell-based; settings: PANC-1, 72 h
BXPC-3 [6] = assay: Antitumour activity against human BXPC-3 cells xenografted in Crl:Nu-Foxnl nu mouse assessed as inhibition of tumour growth at total effective dose of 16 mg/kg, iv measured on day 44; format: functional; settings: BXPC-3, iv, 1056 h, time 44 day, read-out: TGI
ASPC1 [7] = assay: Cytotoxicity against human ASPC1 cells assessed as reduction in cell viability measured after 72 hrs by SRB assay; format: functional, cell-based; settings: ASPC1, 72 h
DU-145 [8] = assay: Antitumour activity against human DU-145 cells xenografted in Crl:Nu-Foxnl nu mouse assessed as inhibition of tumour growth at total effective dose of 16 mg/kg, iv measured on day 33; format: functional; settings: DU-145, iv, 792 h, time 33 day, read-out: TGI
MIA PaCa-2 [9] = assay: Antitumour activity against human MIA PaCa-2 cells xenografted in Crl:Nu-Foxnl nu mouse assessed as inhibition of tumour growth at total effective dose of 12 mg/kg, ip measured on day 15; format: functional; settings: MIA PaCa-2, ip, 360 h, time 15 day, read-out: TGI
MDA-MB-231 [10] = assay: Antitumour activity against human MDA-MB-231 cells xenografted in Crl:Nu-Foxnl nu mouse assessed as inhibition of tumour growth at total effective dose of 32 mg/kg, iv measured on day 32; format: functional; settings: MDA-MB-231, iv, 768 h, time 32 day, read-out: TGI
BXPC-3 [11] = assay: Antitumour activity against human BXPC-3 cells xenografted in Crl:Nu-Foxnl nu mouse assessed as inhibition of tumour growth at total effective dose of 16 mg/kg, iv measured on day 32; format: functional; settings: BXPC-3, iv, 768 h, time 32 day, read-out: TGI
ASPC1 [12] = assay: Antitumour activity against human ASPC1 cells xenografted in Crl:Nu-Foxnl nu mouse assessed as inhibition of tumour growth at total effective dose of 16 mg/kg, iv measured on day 39; format: functional; settings: 936 h, time 39 day, read-out: TGI
Quadruplex DNA [13] = assay: Stabilization of 5'-FAM/3'-TAMRA labeled telomeric G4 quadruplex DNA F21T (unknown origin) assessed as change in melting temperature at 10 microM measured after 15 mins by FRET assay; format: nucleic-acid assay
DU-145 [14] = assay: Cytotoxicity against human DU-145 cells assessed as reduction in cell viability measured after 72 hrs by SRB assay; format: functional, cell-based; settings: DU-145, 72 h
Quadruplex DNA [15] = assay: Stabilization of 5'-FAM/3'-TAMRA labeled c-Myc promoter G4 quadruplex DNA FPu18 (unknown origin) assessed as change in melting temperature at 10 microM measured after 15 mins by FRET assay; format: nucleic-acid assay
[16] = Stabilization of ds 5'-FAM-d(TATAGCTATA-HEG-TATAGCTATA)-TAMRA-3' (unknown origin) assessed as change in melting temperature at 10 microM measured after 15 mins by FRET assay; settings: Homo sapiens
BXPC-3 [17] = assay: Cytotoxicity against human BXPC-3 cells assessed as reduction in cell viability measured after 72 hrs by SRB assay; format: functional, cell-based; settings: BXPC-3, 72 h
PANC-1 [18] = assay: Antitumour activity against human PANC-1 cells xenografted in Crl:Nu-Foxnl nu mouse assessed as inhibition of tumour growth at total effective dose of 16 mg/kg, iv measured on day 33; format: functional; settings: PANC-1, iv, 792 h, time 33 day, read-out: TGI
NCI-H460 = assay: Cytotoxicity against human NCI-H460 cells assessed as reduction in cell viability measured after 72 hrs by SRB assay; format: functional, cell-based; settings: NCI-H460, 72 h
Capan-2 = assay: Cytotoxicity against human Capan-2 cells assessed as reduction in cell viability measured after 72 hrs by SRB assay; format: functional, cell-based; settings: Capan-2, 72 h
HCT-116 = assay: Cytotoxicity against human HCT-116 cells assessed as reduction in cell viability measured after 72 hrs by SRB assay; format: functional, cell-based; settings: HCT-116, 72 h
MIA PaCa-2 [19] = assay: Cytotoxicity against human MIA PaCa-2 cells assessed as reduction in cell viability measured after 72 hrs by SRB assay; format: functional, cell-based; settings: MIA PaCa-2, 72 h
BXPC-3 [20] = assay: Antitumour activity against human BXPC-3 cells xenografted in Crl:Nu-Foxnl nu mouse assessed as inhibition of tumour growth at total effective dose of 160 mg/kg, iv measured on day 29; format: functional; settings: BXPC-3, iv, 696 h, time 29 day, read-out: TGI
[21] = Toxicity in BALB/c mouse assessed as effect on body weight at total dose of 120 mg/kg, iv administered as 3 times per week for 2 weeks measured for 65 days; format: organism-based; settings: in vivo, 1560 h, time 65 day
[22] = Toxicity in BALB/c mouse assessed as macroscopic anatomopathological changes at total dose of 120 mg/kg, iv administered as 3 times per week for 2 weeks measured for 65 days; format: organism-based; settings: in vivo, 1560 h, time 65 day
PANC-1 [23] = assay: Antitumour activity against human PANC-1 cells xenografted in Crl:Nu-Foxnl nu mouse assessed as inhibition of tumour growth at total effective dose of 160 mg/kg, iv measured on day 40; format: functional; settings: PANC-1, iv, 960 h, time 40 day, read-out: TGI
MIA PaCa-2 [24] = assay: Antitumour activity against human MIA PaCa-2 cells xenografted in Crl:Nu-Foxnl nu mouse assessed as inhibition of tumour growth at total effective dose of 20 mg/kg, ip measured on day 33; format: functional; settings: MIA PaCa-2, ip, 792 h, time 33 day, read-out: TGI
[25] = Toxicity in BALB/c mouse assessed as macroscopic anatomopathological changes at 60 mg/kg, iv administered as single dose measured for 64 days; format: organism-based; settings: in vivo, 1536 h, time 64 day
PANC-1 [26] = assay: Antitumour activity against human PANC-1 cells xenografted in Crl:Nu-Foxnl nu mouse assessed as inhibition of tumour growth at total effective dose of 48 mg/kg, iv measured on day 32; format: functional; settings: PANC-1, iv, 768 h, time 32 day, read-out: TGI
BXPC-3 [27] = assay: Antitumour activity against human BXPC-3 cells xenografted in Crl:Nu-Foxnl nu mouse assessed as inhibition of tumour growth at total effective dose of 80 mg/kg, iv measured on day 32; format: functional; settings: BXPC-3, iv, 768 h, time 32 day, read-out: TGI
PANC-1 [28] = assay: Antitumour activity against human PANC-1 cells xenografted in Crl:Nu-Foxnl nu mouse assessed as inhibition of tumour growth at total effective dose of 80 mg/kg, iv measured on day 56; format: functional; settings: PANC-1, iv, 1344 h, time 56 day, read-out: TGI
[29] = Toxicity in BALB/c mouse assessed as effect on body weight at 60 mg/kg, iv administered as single dose measured for 64 days; format: organism-based; settings: in vivo, 1536 h, time 64 day

O=c1c2ccccc2n2cnc3ccc(NCCCN4CCN(CCCNc5c6ccccc6nc6cccc([N+](=O)[O-])c56)CC4)c1c32
Activity [1]: Non-Toxic
pIC50 (MCF7): 7.09
pIC50 (MDA-MB-231 [2]): 7.68
ΔTm (Quadruplex DNA [3]): 27.6 °C
Activity [4]: Non-Toxic
pIC50 (PANC-1 [5]): 7.62
inhibition in vivo at 16 mg/kg (BXPC-3 [6]): 81%
pIC50 (ASPC1 [7]): 7.16
inhibition in vivo at 16 mg/kg (DU-145 [8]): 61%
inhibition in vivo at 12 mg/kg (MIA PaCa-2 [9]): 38%
inhibition in vivo at 32 mg/kg (MDA-MB-231 [10]): 53%
inhibition in vivo at 16 mg/kg (BXPC-3 [11]): 48%
inhibition in vivo at 16 mg/kg (ASPC1 [12]): 29%
ΔTm (Quadruplex DNA [13]): 30 °C
pIC50 (DU-145 [14]): 7.66
ΔTm (Quadruplex DNA [15]): 23.3 °C
ΔTm [16]: 5.4 °C
pIC50 (BXPC-3 [17]): 7.27
inhibition in vivo at 16 mg/kg (PANC-1 [18]): 80%
pIC50 (NCI-H460): 7.82
pIC50 (Capan-2): 7.49
pIC50 (HCT-116): 7.60
pIC50 (MIA PaCa-2 [19]): 7.41

Cc1cc(C(N)CCN2CCN(CCCNc3ccc4ncn5c6ccccc6c(=O)c3c45)CC2)c([N+](=O)[O-])c2cc3ccccc3nc12 (stereo unspecified)
ΔTm (Quadruplex DNA [3]): 19.9 °C
pIC50 (PANC-1 [5]): 7.19
pIC50 (ASPC1 [7]): 6.62
inhibition in vivo at 160 mg/kg (BXPC-3 [20]): 40%
Activity [21]: Non-Toxic
ΔTm (Quadruplex DNA [13]): 19.2 °C
pIC50 (DU-145 [14]): 7.21
ΔTm (Quadruplex DNA [15]): 27 °C
ΔTm [16]: 3.6 °C
pIC50 (BXPC-3 [17]): 6.45
Activity [22]: Non-Toxic
inhibition in vivo at 160 mg/kg (PANC-1 [23]): 64%
pIC50 (HCT-116): 7.35
pIC50 (MIA PaCa-2 [19]): 7.24

Cc1cc(NCCCN(C)CCCNc2ccc3ncn4c5ccc(O)cc5c(=O)c2c34)c([N+](=O)[O-])c2cc3ccccc3nc12
pIC50 (MDA-MB-231 [2]): 7.28
ΔTm (Quadruplex DNA [3]): 10.7 °C
inhibition in vivo at 20 mg/kg (MIA PaCa-2 [24]): 55%
Activity [25]: Non-Toxic
inhibition in vivo at 48 mg/kg (PANC-1 [26]): 63%
pIC50 (PANC-1 [5]): 6.67
pIC50 (ASPC1 [7]): 6.82
ΔTm (Quadruplex DNA [13]): 18.3 °C
pIC50 (DU-145 [14]): 7.23
ΔTm (Quadruplex DNA [15]): 27.6 °C
inhibition in vivo at 80 mg/kg (BXPC-3 [27]): 77%
ΔTm [16]: 2.8 °C
pIC50 (BXPC-3 [17]): 6.77
inhibition in vivo at 80 mg/kg (PANC-1 [28]): 64%
pIC50 (NCI-H460): 7.02
Activity [29]: Non-Toxic
pIC50 (Capan-2): 7.28
pIC50 (HCT-116): 7.40
pIC50 (MIA PaCa-2 [19]): 7.23
